80 compounds from the METLIN SMRT retention time set (Domingo-Almenara et al. 2019) can be followed below.

The nature of the series: gradient 5% acetonitrile 3 min, to 50% in 2 min, to 85% in 15 min, held 3 min, 100 µL/min. Conditions: column: Zorbax Extend-C18 2.1 x 50 mm; eluents: water / acetonitrile, 0.1% formic acid. An outline of the steps: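 Retention times come from adduct peaks that were picked computationally and then checked by hand. The standards, pure and pooled in mixtures of ~100 molecules, were run on a Zorbax Extend-C18 column (2.1 × 50 mm, 1.8 μm) at 100 μL/min with water and acetonitrile, each with 0.1% formic acid. Detection was by quadrupole time-of-flight mass spectrometry in positive and negative ionization mode, with a dead volume of 40 μL and a dwell volume of 900 μL.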
As for `O=C(Nc1cccc(F)c1)C1CCN(S(=O)(=O)c2cc(-c3noc(C4CC4)n3)cs2)CC1`, the RP-LC retention time was 1040 s.
As to `O=c1n(Cc2ccc(F)cc2)nc2ccc(S(=O)(=O)N3CCCCC3)cn12`, the RP-LC retention time came to 923 s.
Then `CC(C)Cn1nc(CNC(=O)CSc2ccncc2)c2ccccc21`, with 632 s; and `COC(=O)c1c(C)[nH]c(C(=O)N2CCC(CC(=O)NCCC3=CCCCC3)CC2)c1C`, with 787 s; and `CCS(=O)(=O)N1CCCN(C2=NS(=O)(=O)C(c3ccc(C)c(C)c3)=C2C)CC1`, with 872 s.
As for `CCCCN1C(=O)C(C)(C(=O)NCc2ccccc2)Oc2cccnc21` (stereo not given), the figure is 972 s; as for `NC(=O)c1cc(-c2cccc(Cl)c2)n[nH]1`, 679 s; as for `Cc1ccc(Sc2nccnc2N2CCCC(C(=O)NCc3ccc(F)cc3)C2)cc1` (stereo not given), 1100 s.
As for `COc1cc([C@@H]2c3cc4c(cc3[C@H](O)[C@@H](CO)[C@@H]2C(=O)Nc2cccc(F)c2)OCO4)cc(OC)c1OC`, the figure is 761 s.
Compound `COc1ccc(C(=O)N2CCc3cc(-c4csc(C)n4)ccc32)c(OC)c1` came in with an RP-LC retention time of 965 s.
Then `CCC1CN2C=Nc3oc(C)c(C(=O)NCc4ccccc4Cl)c3C2=N1` (stereo not given), with 681 s; and `Cc1ccc2c(c1)NC(=O)c1cc(NS(=O)(=O)c3ccccc3F)ccc1O2`, with 571 s; and `O=S(=O)(c1ccc(Cl)c(-c2nnc(-c3ccccc3)o2)c1)N1CCOCC1`, with 946 s.
Compound `Cc1ccc(N2CCC(NC(=O)C3CCCC3)C2=O)cc1` (stereo not given) came in with an RP-LC retention time of 762 s.
`Cc1cccc(NC(=O)C2CCCN(S(=O)(=O)c3cn(C(C)C)cn3)C2)c1C` (stereo not given) displayed an RP-LC retention time of 878 s.
Then `COc1ccc(-c2cn3cccnc3n2)cc1NC(=O)c1cc(Br)ccc1Cl`, with 768 s; and `COC(=O)c1nnn(-c2cc(Cl)ccc2C)c1C(=O)OC`, with 933 s.
As for `CCC(=O)N(C1CCOCC1)C1CCN(Cc2cc(F)c(F)cc2F)CC1`, the figure is 608 s.
Then `Cc1ccc(C)c(NC(=O)CN2C(=O)C(C(=O)N3CCCC3)Sc3ccccc32)c1` (stereo not given), with 969 s; and `COC(=O)c1ccc2c(=O)n(-c3ccc4c(c3)OCO4)c(N3CCC(C)CC3)nc2c1`, with 1150 s.
In the case of `COC(=O)c1cc(S(=O)(=O)N2CCCC2C(=O)Nc2ccc3c(c2)OCCO3)cn1C` (stereo not given), the RP-LC retention time was found to be 794 s.
Then `Cc1nc2c(NS(=O)(=O)c3ccc(F)c(C)c3)cccn2n1`, with 784 s.
Then `Cc1ccc(Cc2nc(-c3ccc(S(=O)(=O)N4CCC(C(=O)N5CCCC5)CC4)cc3)no2)cc1`, with 1060 s.
As for `COc1ccc(C2Cn3nnc(-c4nc(C)no4)c3CO2)cc1` (stereo not given), the figure is 833 s; as for `Cc1ccc(CNc2ccc(-c3nc(-c4ccc(F)cc4)no3)cn2)o1`, 1190 s; as for `Cc1nc(-c2cccc(-c3noc(C(=O)NCCCN4CCC(C)CC4)n3)c2)cs1`, 699 s.
`CCCn1cc(CCNC(=O)c2cc(F)ccc2Cl)c2cccnc21` yielded an RP-LC retention time of 795 s.
As for `CN(CC1CCOCC1)C(=O)Nc1cccc(F)c1`, the figure is 720 s.
The compound `CC(C)(C)c1csc(-c2csc(S(=O)(=O)NCC3CCCCC3)c2)n1` displayed an RP-LC retention time of 1410 s.
For the compound `CC(=O)N1CCc2nn(CC(=O)Nc3ccc(F)c(F)c3)c(=O)cc2C1`, the RP-LC retention time worked out at 644 s.
For `COC(=O)Cn1c(C2CC(=O)N(c3cccc(C)c3)C2)nc2ccccc21` (stereo not given), the RP-LC retention time came out at 758 s.
Compound `c1ccc(-c2cn3c(n2)SCC3)cc1` came in with an RP-LC retention time of 549 s.
In turn, `COC1CCC12CCN(C(=O)c1ocnc1C)CC2` (stereo not given) showed an RP-LC retention time of 692 s.
Then `CCN1C(=O)C2(CCN(S(=O)(=O)c3ccc(F)c(C)c3)CC2)c2ccccc21`, with 1090 s.
Then `CCOc1cccc(CNC(=O)c2cn(C)nc2S(=O)(=O)N2CCSCC2)c1`, with 889 s; and `Cc1ccc(-c2csc(NC(=O)c3ccc(C)c(C)c3)n2)cc1`, with 1240 s; and `O=C1CCC(CCNS(=O)(=O)c2cc(Cl)ccc2Cl)CCN1CC1CC1` (stereo not given), with 897 s.
Then `Cc1nn(-c2ccccc2)c(C)c1S(=O)(=O)N1CCC(C(=O)NC2CCCC2)CC1`, with 860 s.
For `O=C(Nc1nnc(C2CC(=O)N(c3ccc(Cl)cc3)C2)o1)c1ccccc1F` (stereo not given), the RP-LC retention time turned out to be 748 s.
For `CCS(=O)(=O)Nc1ccc(-c2noc(-c3ccc4c(c3)OCO4)n2)cc1`, the RP-LC retention time was 954 s.
The compound `COc1cccc(NS(=O)(=O)c2cccc(-c3nc(-c4ccccc4)no3)c2)c1` returned an RP-LC retention time of 1140 s.
Then `CC(C)CCNC(=O)c1cn(C)nc1S(=O)(=O)N1CCC(C)CC1`, with 996 s; and `Cc1nc(-c2csc(S(=O)(=O)N3CCC(C(=O)Nc4ccc(F)cc4Cl)CC3)c2)no1`, with 1010 s; and `CCN(CC)CCNC(=O)Cn1c(-c2ccccn2)nc2ccccc21`, with 571 s.
In turn, `Cc1ccccc1C(=O)N1C[C@@H]2C[C@H]1C[C@@H]2NS(=O)(=O)c1cccs1` came in with an RP-LC retention time of 776 s.
As for `Cc1ccccc1NC(=O)/C=N/O`, the figure is 636 s.
The compound `Cc1[nH]c2ccc(F)cc2c1CCNS(=O)(=O)c1ccc(F)cc1` returned an RP-LC retention time of 865 s.
Consider `Cc1ccc(CNC(=O)C2(C)CCN(C(=O)Nc3ccc(C)cc3Cl)CC2)cc1`, for which the RP-LC retention time was 956 s.
The compound `CCCn1cc(C(=O)NCC(C)C)c(S(=O)(=O)N2CCN(c3ccccc3OCC)CC2)n1` came in with an RP-LC retention time of 1180 s.
Then `COc1cc(CCc2cc(NC(=O)c3ccc(N4C[C@@H](C)N[C@@H](C)C4)cc3)n[nH]2)cc(OC)c1`, with 687 s.
As for `O=S(=O)(Cc1ccccc1Cl)N(CCc1cccs1)Cc1ccco1`, the figure is 1080 s; as for `CCc1noc(NC(C)=O)c1-c1ccc(OC)c(S(=O)(=O)NC2CCCC2)c1`, 801 s; as for `O=c1ccc(-c2nc(-c3ccncc3)no2)cn1Cc1noc(C2CCCC2)n1`, 719 s.
Then `CC1CCCN(Cc2nc(Cn3ccn4nc(-c5ccccc5)cc4c3=O)no2)C1` (stereo not given), with 654 s.
As to `CCc1ccc(S(=O)(=O)c2cnc(N3CCc4ccccc4C3)nc2N)cc1`, the RP-LC retention time is 1170 s.
For the compound `CN(C)c1ccc2c(c1)CN(C(=O)C1CC=CC1)CCO2`, the RP-LC retention time is 610 s.
Then `CCC(c1cccs1)N1C(=O)[C@H]2CN(S(=O)(=O)c3ccc(C)c(C)c3)C[C@H]2C1=O` (stereo not given in full), with 1070 s.
Turning to `CCOc1cc(-c2noc(-c3ncn4c3COC(c3ccc(F)cc3)C4)n2)ccc1OC` (stereo not given), the RP-LC retention time amounted to 1040 s.
The compound `CN(CC1CCOC1)C(=O)NCCc1ccccc1` (stereo not given) gave an RP-LC retention time of 650 s.
Then `O=c1c2oc3ccccc3c2ncn1Cc1nc(-c2cccc(Cl)c2)no1`, with 1010 s; and `COc1ccc(OC)c(-c2[nH]ncc2CN2CC(F)(F)C[C@H]2CN2CCOCC2)c1`, with 606 s; and `Cc1ccc(-c2nc3cnccn3c2Nc2ccc(F)cc2)cc1`, with 904 s.
As for `CCOC(=O)c1sc2ccccc2c1S(=O)(=O)N1CCC(C(N)=O)(N2CCCCC2)CC1`, the figure is 656 s; as for `Cc1cc(C)cc(NC(=O)Cn2cnc3c(sc4nc(-c5ccccc5)ccc43)c2=O)c1`, 1100 s; as for `COCCn1cc(CCNC(=O)Nc2ccc(Cl)cc2F)c2cccnc21`, 806 s.
As for `c1ccc(-c2noc(N3CCN(c4ccccn4)CC3)n2)cc1`, the figure is 668 s.
With `O=C(NCCn1cnc2cc(C(=O)N3CCCC3)ccc21)Nc1cccc(Br)c1`, the RP-LC retention time turned out to be 623 s.
As for `O=C(Nc1ccc2nc3n(c(=O)c2c1)CCCC3)Nc1ccc(Br)cc1F`, the figure is 782 s; as for `CN(Cc1ccccc1)C(=O)C(=O)c1c[nH]c2ccccc12`, 800 s.
As for `COc1cccc(/C=N\NC(=O)C(C)SC(C)C(=O)N/N=C/c2cccc(OC)c2)c1` (stereo not given), the figure is 769 s.
Then `CCN1CCn2cc(S(=O)(=O)Nc3ccc(F)cc3F)cc2C1=O`, with 727 s.
Compound `Cc1ccc2c(Nc3cc(F)cc(F)c3)c(C(=O)N3CCCC3)cnc2n1` gave an RP-LC retention time of 615 s.
As for `O=C(c1ccc(-c2cccs2)nc1)N1CCN(c2ccc(F)cc2)CC1`, the figure is 950 s.
Take `COCC1CN(S(=O)(=O)c2ccc(F)c(C)c2)CC12CCNCC2` (stereo not given): the RP-LC retention time was determined as 636 s.
As for `Cc1ccc(CNC(=O)CCc2nnc3c4cc(-c5ccccc5)nn4ccn23)cc1C`, the figure is 815 s; as for `Cc1ccc(-c2nc(N3CCSCC3)ncc2C(=O)O)cc1`, 918 s; as for `CC(C)CCNC(=O)C1CCN(c2cncnc2N(C)C)CC1`, 564 s.
Then `Cc1oc(C2CCC2)nc1C(=O)NCc1ccc2c(c1)OCO2`, with 978 s.
As for `Cn1ncc(NC(=O)Cc2ccc(Cl)cc2)c(N2CCOCC2)c1=O`, the figure is 772 s.
`O=C(Nc1cc(-c2ccccn2)no1)c1nccc2ccccc12` displayed an RP-LC retention time of 956 s.
